The values that follow come from US20050142104A1, “Methods of using and compositions comprising PDE4 modulators for the treatment and management of asbestos-related diseases and disorders” (priority 2003, published 2005).

A short description of series [1]: Clinical studies in unresectable or relapsed mesothelioma patients. Type of series: in vivo, human. The conditions noted are these: 400 mg as a continuous oral daily dose; mesothelioma patients not responding to conventional therapy. As for the experimental part: Clinical trials with the administration of a PDE4 modulator in an amount of from about 1 mg to about 1,000 mg, from about 1 mg to about 500 mg, or from about 1 mg to about 250 mg per day are conducted in patients with asbestosis, malignant mesothelioma, or malignant pleural effusion mesothelioma syndrome. In a specific embodiment, patients receive about 1 mg to about 1000 mg/day of 3-(3,4-dimethoxy-phenyl)-3-(1-oxo-1,3-dihydro-isoindol-2-yl)-propionamide alone or in combination with vinorelbine. Patients who experience clinical benefit are permitted to continue on treatment.
Other clinical studies are performed using 3-(3,4-dimethoxy-phenyl)-3-(1-oxo-1,3-dihydro-isoindol-2-yl)-propionamide in unresectable or relapsed mesothelioma patients that have not responded to conventional therapy. In one embodiment, 3-(3,4-dimethoxy-phenyl)-3-(1-oxo-1,3-dihydro-isoindol-2-yl)-propionamide is administered in an amount of about 1 mg to about 1,000 mg/day to the patients. Treatment with 400 mg as a continuous oral daily dose is well-tolerated.

The next series concerns TNF-α production. The series is described as follows: In vitro studies: inhibition of TNF-α production following LPS-stimulation of human PBMC and human whole blood. As to conditions: comparator thalidomide. Type of series: cell-based. As for the experimental part:
In a specific embodiment, the pharmacological properties of 3-(3,4-dimethoxy-phenyl)-3-(1-oxo-1,3-dihydro-isoindol-2-yl)-propionamide are characterized in in vitro studies. Studies examine the effects of the compound on the production of various cytokines. Inhibition of TNF-α production following LPS-stimulation of human PBMC and human whole blood by the compound is investigated in vitro. The IC50's of the compound for inhibiting production of TNF-α are measured. […] The pharmacological effects of 3-(3,4-dimethoxy-phenyl)-3-(1-oxo-1,3-dihydro-isoindol-2-yl)-propionamide may derive from its action as an inhibitor of the generation of inflammatory cytokines.

Turning to `COc1ccc(C(CC(N)=O)N2Cc3ccccc3C2=O)cc1OC` (centres unmarked) [3-(3,4-Dimethoxy-phenyl)-3-(1-oxo-1,3-dihydro-isoindol-2-yl)-propionamide], the tolerability result in series [1] is “well-tolerated”. Moreover, in the series with TNF-α production, the “pharmacological activity profile, potency relative to thalidomide” value was “five to fifty times more potent than thalidomide”.
